Values of other authors as cited in paper PMC8847371 (Nature Communications, 2022).

How the values were obtained:
SARS-CoV-2 = details: cited from earlier work
COVID-19 [1] = test system: COVID-19; design: method as in MOVe-OUT trial (NCT04575597); details: phase 3, high-risk patients with mild to moderate COVID-19; ref MOVe-OUT trial (NCT04575597); cited from earlier work
SARS-CoV-2 VoC = details: cited from earlier work
COVID-19 [2] = test system: COVID-19; design: method as in recent press release; details: early administration, high risk patients with mild to moderate symptoms; ref recent press release; cited from earlier work

Structure (SMILES)	efficacy in the SARS-CoV-2 hamster infection model (SARS-CoV-2)	risk of hospitalization or death (COVID-19 [1])	in vitro potency against the four VOC (SARS-CoV-2 VoC)	reduction of likelihood of hospitalization (COVID-19 [2]) [%]
CC(C)C(=O)OC[C@H]1O[C@@H](n2ccc(NO)nc2=O)[C@H](O)[C@@H]1O [Molnupiravir]	effective	significant reduction	equipotent	
CCC(CC)COC(=O)[C@H](C)N[P@](=O)(OC[C@H]1O[C@@](C#N)(c2ccc3c(N)ncnn23)[C@H](O)[C@@H]1O)Oc1ccccc1 [Veklury]				87
